Drawing on ChEMBL document CHEMBL4507266, “Data for DCP probe BAY-784” (2021), this text covers inhibition for one molecule.

Holding throughout (conditions): Compound concentration 10.0 uM
Experiment [1] has as its target Melanocortin receptor 5 (Homo sapiens) (UniProt P33032). As to the kind of experiment: Inhibition of Melanocortin MC5 at 10 µM in the Eurofins-Panlabs radioligand binding assay (Eurofins_assay_251400). Further details: ligand concentration 0.035 nM.
The target in experiment [2] is T1, Muscarinic acetylcholine receptor M5 (Homo sapiens) (UniProt P08912).
T1 sequence (whole entry): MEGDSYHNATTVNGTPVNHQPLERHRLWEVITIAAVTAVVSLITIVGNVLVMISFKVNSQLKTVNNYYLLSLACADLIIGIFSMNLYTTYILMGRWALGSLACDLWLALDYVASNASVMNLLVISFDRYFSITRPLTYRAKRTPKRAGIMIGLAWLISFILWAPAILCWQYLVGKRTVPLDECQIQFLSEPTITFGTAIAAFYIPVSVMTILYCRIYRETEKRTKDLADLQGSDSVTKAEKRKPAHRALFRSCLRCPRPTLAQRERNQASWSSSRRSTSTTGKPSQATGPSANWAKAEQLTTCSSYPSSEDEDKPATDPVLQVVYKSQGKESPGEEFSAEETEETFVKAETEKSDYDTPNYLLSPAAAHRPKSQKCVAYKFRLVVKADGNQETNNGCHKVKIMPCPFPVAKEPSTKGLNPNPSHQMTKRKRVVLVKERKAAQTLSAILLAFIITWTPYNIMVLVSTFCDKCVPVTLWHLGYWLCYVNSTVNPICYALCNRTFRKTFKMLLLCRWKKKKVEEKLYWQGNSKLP
As to the kind of experiment: Inhibition of Muscarinic M5 at 10 µM in the Eurofins-Panlabs radioligand binding assay (Eurofins_assay_253010). On the set-up: ligand concentration 0.8 nM.

Experiment [3] concerns the target Platelet-activating factor receptor (Homo sapiens) (UniProt P25105). As to the kind of experiment: Inhibition of Platelet Activating Factor (PAF) at 10 µM in the Eurofins-Panlabs radioligand binding assay (Eurofins_assay_265010).
The target in experiment [4] is Cholecystokinin receptor type A (Homo sapiens) (UniProt P32238). As to the kind of experiment: Inhibition of Cholecystokinin CCK1 (CCKA) at 10 µM in the Eurofins-Panlabs radioligand binding assay (Eurofins_assay_218020).
Chain of Cholecystokinin receptor type A (Homo sapiens) (P32238 whole entry): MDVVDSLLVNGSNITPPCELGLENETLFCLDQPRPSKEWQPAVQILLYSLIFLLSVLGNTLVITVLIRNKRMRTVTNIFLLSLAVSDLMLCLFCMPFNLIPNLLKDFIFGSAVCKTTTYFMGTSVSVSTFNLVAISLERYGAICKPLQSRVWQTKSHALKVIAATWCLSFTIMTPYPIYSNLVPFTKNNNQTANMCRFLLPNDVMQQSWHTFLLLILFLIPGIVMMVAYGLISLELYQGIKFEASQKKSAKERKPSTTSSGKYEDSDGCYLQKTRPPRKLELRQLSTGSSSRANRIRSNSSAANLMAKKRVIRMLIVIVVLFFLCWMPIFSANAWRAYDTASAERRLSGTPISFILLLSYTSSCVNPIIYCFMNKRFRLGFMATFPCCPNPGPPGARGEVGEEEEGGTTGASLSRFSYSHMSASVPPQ
For experiment [5], the target named is Estrogen receptor (Homo sapiens) (UniProt P03372).
Chain of Estrogen receptor (Homo sapiens) (P03372 whole entry): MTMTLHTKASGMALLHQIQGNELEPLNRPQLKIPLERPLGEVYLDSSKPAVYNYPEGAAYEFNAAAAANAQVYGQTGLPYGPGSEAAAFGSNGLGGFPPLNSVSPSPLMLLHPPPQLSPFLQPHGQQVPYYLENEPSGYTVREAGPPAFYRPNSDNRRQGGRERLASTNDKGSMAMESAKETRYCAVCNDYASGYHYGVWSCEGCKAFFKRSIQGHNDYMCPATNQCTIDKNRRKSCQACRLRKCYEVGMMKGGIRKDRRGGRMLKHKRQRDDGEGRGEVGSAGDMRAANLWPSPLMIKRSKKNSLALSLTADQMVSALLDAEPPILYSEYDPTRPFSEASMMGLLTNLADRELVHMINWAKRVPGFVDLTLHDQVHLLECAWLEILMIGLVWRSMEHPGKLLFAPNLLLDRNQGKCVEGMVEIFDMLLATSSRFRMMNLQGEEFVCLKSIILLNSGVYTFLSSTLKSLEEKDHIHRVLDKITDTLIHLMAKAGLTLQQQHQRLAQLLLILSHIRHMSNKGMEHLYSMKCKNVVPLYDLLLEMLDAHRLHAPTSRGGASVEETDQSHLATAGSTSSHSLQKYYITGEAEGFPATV
Experiment [6] deals with 5-hydroxytryptamine receptor 6 (Homo sapiens) (UniProt P50406). As to the kind of experiment: Inhibition of Serotonin (5-Hydroxytryptamine) 5-HT6 at 10 µM in the Eurofins-Panlabs radioligand binding assay (Eurofins_assay_272200).
Chain of 5-hydroxytryptamine receptor 6 (Homo sapiens) (P50406 whole entry): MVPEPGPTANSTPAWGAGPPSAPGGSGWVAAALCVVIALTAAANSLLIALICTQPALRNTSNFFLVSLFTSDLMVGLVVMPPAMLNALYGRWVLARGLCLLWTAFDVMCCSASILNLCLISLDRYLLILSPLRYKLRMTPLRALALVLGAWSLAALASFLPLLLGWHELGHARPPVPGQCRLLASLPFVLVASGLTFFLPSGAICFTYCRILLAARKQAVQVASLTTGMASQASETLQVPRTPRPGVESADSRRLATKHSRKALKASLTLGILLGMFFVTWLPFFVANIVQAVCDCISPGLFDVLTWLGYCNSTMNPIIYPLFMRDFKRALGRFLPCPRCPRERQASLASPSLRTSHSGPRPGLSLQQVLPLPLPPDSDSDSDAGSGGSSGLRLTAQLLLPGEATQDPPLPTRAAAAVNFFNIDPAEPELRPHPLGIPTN
Experiment [7] deals with Sigma non-opioid intracellular receptor 1 (Homo sapiens) (UniProt Q99720). As to the kind of experiment: Sigma 1 Eurofins-Panlabs radioligand binding assay. On the set-up: ligand concentration 8 nM.
Chain of Sigma non-opioid intracellular receptor 1 (Homo sapiens) (Q99720 whole entry): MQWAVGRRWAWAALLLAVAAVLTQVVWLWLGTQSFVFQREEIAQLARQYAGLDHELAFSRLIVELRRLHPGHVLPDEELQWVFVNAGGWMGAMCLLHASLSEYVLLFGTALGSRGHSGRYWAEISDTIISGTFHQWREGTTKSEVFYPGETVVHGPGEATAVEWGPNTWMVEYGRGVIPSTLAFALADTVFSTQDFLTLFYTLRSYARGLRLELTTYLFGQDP
The target in experiment [8] is Adenosine receptor A1 (Homo sapiens) (UniProt P30542).
Chain of Adenosine receptor A1 (Homo sapiens) (P30542 whole entry): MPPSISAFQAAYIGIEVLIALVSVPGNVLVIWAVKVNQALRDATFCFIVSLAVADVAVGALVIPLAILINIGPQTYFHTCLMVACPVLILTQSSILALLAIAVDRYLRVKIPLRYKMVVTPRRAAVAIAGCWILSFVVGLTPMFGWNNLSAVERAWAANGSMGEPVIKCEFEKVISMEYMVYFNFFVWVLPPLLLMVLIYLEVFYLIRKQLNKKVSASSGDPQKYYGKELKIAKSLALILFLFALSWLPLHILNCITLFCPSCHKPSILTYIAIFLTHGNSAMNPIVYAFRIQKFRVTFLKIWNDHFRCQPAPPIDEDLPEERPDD
Experiment [9] has as its target T2, D(4) dopamine receptor (Homo sapiens) (UniProt P21917).
T2 sequence (whole entry): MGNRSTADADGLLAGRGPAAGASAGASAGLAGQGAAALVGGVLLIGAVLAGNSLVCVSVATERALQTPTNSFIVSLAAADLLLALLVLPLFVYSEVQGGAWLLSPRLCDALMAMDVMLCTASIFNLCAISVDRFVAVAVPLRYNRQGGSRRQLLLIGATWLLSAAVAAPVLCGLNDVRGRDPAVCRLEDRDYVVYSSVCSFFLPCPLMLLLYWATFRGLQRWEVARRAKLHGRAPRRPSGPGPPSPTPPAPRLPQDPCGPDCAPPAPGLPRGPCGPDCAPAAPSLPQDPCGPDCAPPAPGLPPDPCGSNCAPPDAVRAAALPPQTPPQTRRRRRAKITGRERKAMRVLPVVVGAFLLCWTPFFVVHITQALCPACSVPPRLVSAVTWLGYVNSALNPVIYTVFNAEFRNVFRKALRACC
As to the kind of experiment: Inhibition of Dopamine D4.2 at 10 µM in the Eurofins-Panlabs radioligand binding assay (Eurofins_assay_219900). On the set-up: ligand concentration 0.5 nM.

Experiment [10] addresses Neuropeptide Y receptor type 2 (Homo sapiens) (UniProt P49146). As to the kind of experiment: Inhibition of Neuropeptide Y Y2 at 10 µM in the Eurofins-Panlabs radioligand binding assay (Eurofins_assay_257110).
In experiment [11] the target is Vasoactive intestinal polypeptide receptor 1 (Homo sapiens) (UniProt P32241). As to the kind of experiment: Inhibition of Vasoactive Intestinal Peptide VIP1 at 10 µM in the Eurofins-Panlabs radioligand binding assay (Eurofins_assay_287010).
Chain of Vasoactive intestinal polypeptide receptor 1 (Homo sapiens) (P32241 whole entry): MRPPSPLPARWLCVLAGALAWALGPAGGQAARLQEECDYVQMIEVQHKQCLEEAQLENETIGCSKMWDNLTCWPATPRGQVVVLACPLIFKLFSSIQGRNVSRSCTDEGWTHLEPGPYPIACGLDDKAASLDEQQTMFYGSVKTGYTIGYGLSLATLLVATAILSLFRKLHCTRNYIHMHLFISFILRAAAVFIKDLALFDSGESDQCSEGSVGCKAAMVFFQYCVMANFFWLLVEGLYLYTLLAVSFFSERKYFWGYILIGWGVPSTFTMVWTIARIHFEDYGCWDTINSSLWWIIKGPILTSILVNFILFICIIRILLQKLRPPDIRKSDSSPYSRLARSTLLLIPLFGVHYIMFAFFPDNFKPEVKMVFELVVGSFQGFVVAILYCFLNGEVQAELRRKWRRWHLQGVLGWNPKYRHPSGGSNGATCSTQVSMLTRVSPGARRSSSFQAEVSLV
Experiment [12] concerns the target T3, Alpha-1D adrenergic receptor (Homo sapiens) (UniProt P25100).
T3 sequence (whole entry): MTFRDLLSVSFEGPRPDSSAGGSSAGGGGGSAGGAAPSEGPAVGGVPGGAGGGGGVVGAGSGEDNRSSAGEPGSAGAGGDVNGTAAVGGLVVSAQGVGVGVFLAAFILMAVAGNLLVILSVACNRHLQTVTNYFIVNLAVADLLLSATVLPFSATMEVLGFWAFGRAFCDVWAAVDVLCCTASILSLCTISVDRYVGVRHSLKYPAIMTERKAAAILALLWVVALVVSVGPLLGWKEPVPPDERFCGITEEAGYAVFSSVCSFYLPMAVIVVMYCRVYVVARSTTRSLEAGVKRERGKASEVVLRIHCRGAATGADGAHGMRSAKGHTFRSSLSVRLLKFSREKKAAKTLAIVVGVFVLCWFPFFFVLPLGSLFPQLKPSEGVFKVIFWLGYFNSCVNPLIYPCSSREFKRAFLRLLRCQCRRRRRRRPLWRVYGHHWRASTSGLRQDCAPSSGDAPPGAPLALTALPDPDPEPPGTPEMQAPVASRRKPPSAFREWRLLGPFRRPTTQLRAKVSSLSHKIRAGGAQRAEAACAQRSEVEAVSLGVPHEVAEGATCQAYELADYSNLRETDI
As to the kind of experiment: Inhibition of Adrenergic alpha1D at 10 µM in the Eurofins-Panlabs radioligand binding assay (Eurofins_assay_203400).

A further experiment relates to Bacteria. As to the kind of experiment: Inhibition of Beta-Lactamase at 10 µM in the Eurofins-Panlabs enzyme assay (Eurofins_assay_126000). The experiment is classed as protein-complex assay. Further details: substrate with concentration.
The species entered for the next experiment is Sus scrofa. As to the kind of experiment: Inhibition of ATPase, Na+/K+, Heart at compound concentration of 10.0 uM in the Eurofins-Panlabs enzyme assay (Eurofins_assay_107710). Further details: substrate with concentration.
Experiment [13] addresses Mitogen-activated protein kinase 3 (Homo sapiens) (UniProt P27361). As to the kind of experiment: Inhibition of Protein Serine/Threonine Kinase, MAPK3 (ERK1) at 10 µM in the Eurofins-Panlabs enzyme assay (Eurofins_assay_171000).

Chain of Neuropeptide Y receptor type 2 (Homo sapiens) (P49146 whole entry): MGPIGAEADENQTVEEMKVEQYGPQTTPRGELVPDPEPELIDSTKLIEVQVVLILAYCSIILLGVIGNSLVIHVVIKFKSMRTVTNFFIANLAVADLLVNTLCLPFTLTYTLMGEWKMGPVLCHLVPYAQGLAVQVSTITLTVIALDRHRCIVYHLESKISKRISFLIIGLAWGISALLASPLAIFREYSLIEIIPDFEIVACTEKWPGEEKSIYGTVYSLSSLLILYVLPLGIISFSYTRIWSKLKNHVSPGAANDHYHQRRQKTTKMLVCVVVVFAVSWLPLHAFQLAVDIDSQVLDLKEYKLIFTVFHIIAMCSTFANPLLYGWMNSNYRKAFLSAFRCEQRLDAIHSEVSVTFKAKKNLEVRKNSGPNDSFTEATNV
Chain of Platelet-activating factor receptor (Homo sapiens) (P25105 whole entry): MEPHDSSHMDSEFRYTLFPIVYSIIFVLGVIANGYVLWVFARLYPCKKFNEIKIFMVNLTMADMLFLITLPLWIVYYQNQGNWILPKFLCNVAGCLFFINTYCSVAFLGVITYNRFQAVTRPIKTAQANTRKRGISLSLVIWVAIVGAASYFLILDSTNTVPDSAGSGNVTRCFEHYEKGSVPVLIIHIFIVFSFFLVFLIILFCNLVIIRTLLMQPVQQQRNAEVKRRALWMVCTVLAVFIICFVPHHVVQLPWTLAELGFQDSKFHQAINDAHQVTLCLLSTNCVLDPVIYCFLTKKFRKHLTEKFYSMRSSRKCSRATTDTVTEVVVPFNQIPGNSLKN
Chain of Melanocortin receptor 5 (Homo sapiens) (P33032 whole entry): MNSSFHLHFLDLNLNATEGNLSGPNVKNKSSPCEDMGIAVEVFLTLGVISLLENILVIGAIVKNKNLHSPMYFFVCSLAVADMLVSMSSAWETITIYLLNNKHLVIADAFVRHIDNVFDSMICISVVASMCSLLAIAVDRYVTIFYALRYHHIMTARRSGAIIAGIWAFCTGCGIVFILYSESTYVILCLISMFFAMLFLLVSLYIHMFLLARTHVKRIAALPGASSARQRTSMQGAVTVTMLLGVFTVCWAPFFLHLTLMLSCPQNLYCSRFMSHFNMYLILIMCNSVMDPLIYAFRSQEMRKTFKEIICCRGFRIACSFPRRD
Chain of Mitogen-activated protein kinase 3 (Homo sapiens) (P27361 whole entry): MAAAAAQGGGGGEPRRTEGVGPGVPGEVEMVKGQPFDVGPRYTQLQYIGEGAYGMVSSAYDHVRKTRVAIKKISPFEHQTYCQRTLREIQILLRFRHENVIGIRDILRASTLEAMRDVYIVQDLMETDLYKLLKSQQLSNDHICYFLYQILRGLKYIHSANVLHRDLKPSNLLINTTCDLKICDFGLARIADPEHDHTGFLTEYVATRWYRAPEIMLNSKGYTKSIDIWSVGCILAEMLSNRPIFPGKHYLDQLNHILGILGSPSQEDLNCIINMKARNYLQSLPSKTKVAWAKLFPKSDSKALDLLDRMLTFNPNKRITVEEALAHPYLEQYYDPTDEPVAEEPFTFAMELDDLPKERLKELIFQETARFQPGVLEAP

With `O=C(NCc1ncc(C(F)(F)F)cc1Cl)c1ccc2c(c1)C1(CCS(=O)(=O)CC1)[C@H](C1CC1)N2S(=O)(=O)c1ccc(F)cc1` [BAY-784], the inhibition (as a rule, the drop in the measured response relative to a control, in per cent) was 27% in experiment [1]; 0% in [2]; 6% in [3]; -3% in experiment [4]; 21% in [5]; 14% in experiment [6]. Further, the inhibition in experiment [7] was 15%; in [8], 15%; in experiment [9], 11%; in [10], 2%; in experiment [11] it was 2%; in [12], 18%. For the same molecule, the inhibition was 4% in the experiment on Bacteria, 0% in the experiment filed under Sus scrofa and 87% in experiment [13].
